Data on one compound can be found in paper PMC5391474, “Investigation of the Role of Protein Kinase D in Human Rhinovirus Replication” (Journal of Virology, 2017).

One assay deals with T1, PKD (PKD1) (Homo sapiens, UniProt Q15139).
T1 construct: gene PRKD1
Kind of assay: in vitro kinase assay with purified recombinant kinase; also pS916 inhibition in PANC1 and HeLa cells. It is filed as biochemical.

In the next assay the target is PAK2(h) (Homo sapiens, UniProt Q13177). The experiment in a line: biochemical. Also on record: in vitro kinase selectivity panel, protein and lipid kinases, single concentration, ATP at Km. The following applies: ATP at Km. Summed up: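 Single-point screen against a protein and lipid kinase panel: inhibitor at 1 μM. ATP concentration for every kinase equivalent to its Km.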
Sequence of PAK2(h) (Q13177 whole entry): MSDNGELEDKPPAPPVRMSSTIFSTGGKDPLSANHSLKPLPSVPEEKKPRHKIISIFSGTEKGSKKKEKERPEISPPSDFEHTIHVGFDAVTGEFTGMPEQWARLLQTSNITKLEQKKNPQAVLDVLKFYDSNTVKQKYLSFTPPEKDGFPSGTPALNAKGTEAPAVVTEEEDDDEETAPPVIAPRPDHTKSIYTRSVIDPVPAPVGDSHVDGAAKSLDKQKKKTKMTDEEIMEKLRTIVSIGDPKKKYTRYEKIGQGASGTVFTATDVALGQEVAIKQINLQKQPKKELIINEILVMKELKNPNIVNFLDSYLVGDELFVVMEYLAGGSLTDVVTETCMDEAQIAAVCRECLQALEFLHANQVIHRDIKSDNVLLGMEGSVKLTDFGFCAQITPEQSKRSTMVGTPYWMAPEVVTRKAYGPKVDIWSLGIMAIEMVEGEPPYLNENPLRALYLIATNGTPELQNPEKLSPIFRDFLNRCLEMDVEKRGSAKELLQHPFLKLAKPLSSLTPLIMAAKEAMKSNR

T1 sequence (Q15139 whole entry): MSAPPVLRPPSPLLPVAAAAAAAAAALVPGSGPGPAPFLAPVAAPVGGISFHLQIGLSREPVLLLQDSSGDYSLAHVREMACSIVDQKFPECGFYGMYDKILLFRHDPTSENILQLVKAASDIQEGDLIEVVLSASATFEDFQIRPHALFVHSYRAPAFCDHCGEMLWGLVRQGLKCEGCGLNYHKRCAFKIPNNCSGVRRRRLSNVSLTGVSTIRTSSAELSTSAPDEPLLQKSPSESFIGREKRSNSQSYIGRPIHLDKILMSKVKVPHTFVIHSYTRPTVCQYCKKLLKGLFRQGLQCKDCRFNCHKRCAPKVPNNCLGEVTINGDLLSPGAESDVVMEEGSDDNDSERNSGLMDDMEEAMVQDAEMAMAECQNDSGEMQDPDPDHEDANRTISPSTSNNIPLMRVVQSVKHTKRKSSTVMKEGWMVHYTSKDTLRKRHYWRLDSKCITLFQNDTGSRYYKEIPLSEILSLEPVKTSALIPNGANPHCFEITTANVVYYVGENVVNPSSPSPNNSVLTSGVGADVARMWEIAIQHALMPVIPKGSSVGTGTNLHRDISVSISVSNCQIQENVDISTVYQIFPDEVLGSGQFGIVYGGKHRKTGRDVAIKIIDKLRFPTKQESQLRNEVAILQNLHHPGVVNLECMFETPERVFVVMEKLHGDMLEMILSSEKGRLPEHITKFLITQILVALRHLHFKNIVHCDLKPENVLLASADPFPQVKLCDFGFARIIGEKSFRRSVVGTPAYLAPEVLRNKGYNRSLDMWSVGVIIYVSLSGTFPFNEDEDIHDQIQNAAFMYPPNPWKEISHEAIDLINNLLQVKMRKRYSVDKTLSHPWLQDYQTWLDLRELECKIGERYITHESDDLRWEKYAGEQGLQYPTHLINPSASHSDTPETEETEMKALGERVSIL

As a reminder, the IC50 is the concentration needed to halve the response being measured. As a reminder, the inhibition is the change of the read-out against control, counted positive when it falls. Read a high inhibition as strong suppression. In the case of `CC[C@@H](N)CNc1ccnc(-c2cc(-c3cnn(C)c3)ccc2O)n1` [CRT0066101], the IC50 at PKD (PKD1) stood at 1 nM. The compound also displayed an inhibition at 1 µM against PAK2(h) of 9%.
